For 15 compounds, IC50 results are on record in patent publication US8846699B2, “Quinazoline derivatives as a multiplex inhibitor and method for the preparation thereof” (Hanmi Pharm. Co., Ltd., priority 2005, dated 2014).

Experiment [1] concerns Human Umbilical Vein Endothelial Cell (HUVEC). As to the kind of experiment: Inhibitory effect on growth of human umbilical vein endothelial cell (HUVEC), MTS. Type of experiment: cell-based. The following applies: 10 ng/ml VEGF, absorbance 490 nm.
Experiment [2] deals with breast cancer cell line, SK-Br3. As to the kind of experiment: Inhibitory effect on growth of cancer cell line SK-Br3, SRB. Format: cell-based. The following applies: overexpressed EGFR2 (HER-2). The essentials: (§1)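 Growth inhibition was measured by sulforhodamine-B staining (absorbance 570 nm) of TCA-fixed cells after 72 h compound exposure at 37 °C, 5% CO2. Test concentrations ran from 10 μM in 10-fold steps to 10^−4, with DMSO below 1%, in 10% FBS DMEM.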

Experiment [3] has as its system colon and rectal cancer cell line, SW-620. The experiment in a line: Inhibitory effect on growth of cancer cell line SW-620, SRB. Type of experiment: cell-based. The following applies: not having overexpressed EGFR and EGFR2. The essentials:
as §1

In experiment [4] the test system is skin cancer cell line, A431. The experiment in a line: Inhibitory effect on growth of cancer cell line A431, SRB. Type of experiment: cell-based. The following applies: overexpressed EGFR1 (HER-1). The essentials: as §1
For experiment [5], the target named is VEGFR2 (KDR) (Homo sapiens (Human), UniProt P35968). As to the kind of experiment: VEGFR2 (KDR) enzyme assay, fluorescence polarization. Format: biochemical. The following applies: 5 μM ATP, poly(Glu, Tyr) substrate. The procedure, abridged: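 Buffer: 20 mM HEPES pH 7.4 with 5 mM MgCl2, 2 mM MnCl2 and 50 μM Na3VO4. Compound (0.0001–10 μM) was premixed 10 min with VEGFR2 (200 ng/10 μl), then poly(Glu,Tyr) substrate (10 ng/ml) and 5 μM ATP were added for 1 h at room temperature. EDTA-quenched samples were read by FP after 30 min with antibody and tracer.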

The target of experiment [6] is EGFR1 (HER-1) (Homo sapiens (Human), UniProt P00533). The experiment in a line: EGFR1 (HER-1) enzyme assay, fluorescence polarization. Format: biochemical. The following applies: 100 μM ATP, poly(Glu, Tyr) substrate. Background: Fluorescence polarisation rises when a labelled molecule tumbles more slowly, as on binding a larger partner.

Sequence of VEGFR2 (KDR) (P35968 20-1356): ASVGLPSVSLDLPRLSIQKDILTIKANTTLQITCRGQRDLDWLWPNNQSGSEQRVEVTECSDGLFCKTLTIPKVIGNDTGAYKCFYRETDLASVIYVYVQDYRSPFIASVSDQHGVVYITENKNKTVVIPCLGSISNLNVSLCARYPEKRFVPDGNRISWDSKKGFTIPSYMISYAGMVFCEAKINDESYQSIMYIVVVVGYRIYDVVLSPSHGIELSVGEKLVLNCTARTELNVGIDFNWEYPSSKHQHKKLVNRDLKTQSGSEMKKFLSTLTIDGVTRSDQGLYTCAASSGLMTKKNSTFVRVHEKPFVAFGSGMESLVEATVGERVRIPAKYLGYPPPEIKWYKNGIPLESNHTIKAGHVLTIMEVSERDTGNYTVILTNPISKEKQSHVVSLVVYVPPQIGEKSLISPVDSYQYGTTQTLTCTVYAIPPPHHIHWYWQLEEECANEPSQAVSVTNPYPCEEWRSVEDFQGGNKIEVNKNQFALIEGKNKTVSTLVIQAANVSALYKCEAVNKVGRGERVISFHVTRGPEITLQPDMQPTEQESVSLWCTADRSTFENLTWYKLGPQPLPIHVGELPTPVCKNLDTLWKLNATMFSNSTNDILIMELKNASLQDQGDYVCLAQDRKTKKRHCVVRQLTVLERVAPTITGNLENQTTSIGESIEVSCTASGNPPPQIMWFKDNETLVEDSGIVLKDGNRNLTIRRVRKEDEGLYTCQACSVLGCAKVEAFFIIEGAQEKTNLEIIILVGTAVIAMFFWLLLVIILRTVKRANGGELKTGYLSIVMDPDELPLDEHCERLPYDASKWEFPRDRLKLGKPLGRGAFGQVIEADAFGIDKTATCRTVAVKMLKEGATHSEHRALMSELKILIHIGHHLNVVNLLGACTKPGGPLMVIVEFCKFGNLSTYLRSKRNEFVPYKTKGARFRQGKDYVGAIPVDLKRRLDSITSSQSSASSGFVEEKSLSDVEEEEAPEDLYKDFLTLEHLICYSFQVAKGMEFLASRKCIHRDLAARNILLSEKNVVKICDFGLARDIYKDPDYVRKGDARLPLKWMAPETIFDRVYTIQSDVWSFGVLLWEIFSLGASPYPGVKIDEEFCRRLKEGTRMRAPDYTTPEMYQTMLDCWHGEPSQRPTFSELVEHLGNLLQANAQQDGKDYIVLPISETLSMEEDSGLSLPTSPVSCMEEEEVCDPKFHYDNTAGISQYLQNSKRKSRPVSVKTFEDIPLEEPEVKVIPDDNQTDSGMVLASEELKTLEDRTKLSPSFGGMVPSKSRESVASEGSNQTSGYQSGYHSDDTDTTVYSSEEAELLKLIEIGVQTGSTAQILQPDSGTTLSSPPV

As a reminder, the IC50 is the concentration at which inhibition is half-maximal. Low values mean inhibition by little substance, high ones a need for much substance. In the case of `C=CC(=O)Nc1cc2c(Nc3ccc(Br)cc3F)ncnc2cc1OCCNC(=O)NCC` [Example 23, N-{4-(4-bromo-2-fluoro-phenylamino)-7-[2-(3-ethyl-ureido)-ethoxy]-quinazolin-6-yl}-acrylamide], the half-inhibitory concentration (IC50) is 99 nM in experiment [1] (Homo sapiens, 96 h); 38 nM in experiment [2] (Homo sapiens, SK-BR-3, 72 h); 8100 nM in experiment [3] (Homo sapiens, 72 h); 15 nM in experiment [4] (Homo sapiens, A-431, 72 h); 250 nM in experiment [5]; 2 nM in experiment [6].

On to `C=CC(=O)Nc1cc2c(Nc3ccc(Br)cc3F)ncnc2cc1OCCCNC(=O)CN(C)C` [Example 12, N-{4-(4-bromo-2-fluoro-phenylamino)-7-[3-(2-dimethylamino-acetylamino)-propoxy]-quinazolin-6-yl}-acrylamide], for which the IC50 is 156 nM in experiment [1] (Homo sapiens, 96 h); 157 nM in experiment [2] (Homo sapiens, SK-BR-3, 72 h); 2500 nM in experiment [3] (Homo sapiens, 72 h); 17 nM in experiment [4] (Homo sapiens, A-431, 72 h); 347 nM in experiment [5]; 2 nM in experiment [6].

For `C=CC(=O)Nc1cc2c(Nc3ccc(Br)cc3F)ncnc2cc1OCCNC(=O)COC` [Example 44, N-{4-(4-bromo-2-fluoro-phenylamino)-7-[2-(2-methoxy-acetylamino)-ethoxy]-quinazolin-6-yl}-acrylamide], the half-inhibitory concentration (IC50) in experiment [1] (Homo sapiens, 96 h) turned out to be 265 nM; in experiment [2] (Homo sapiens, SK-BR-3, 72 h), 98 nM; in experiment [3] (Homo sapiens, 72 h), 2320 nM; in experiment [4] (Homo sapiens, A-431, 72 h), 16 nM; in experiment [5], 161 nM; in experiment [6], 14 nM.

Take `C=CCNC(=O)NCCOc1cc2ncnc(Nc3ccc(Br)cc3F)c2cc1NC(=O)C=C` [Example 40, N-[7-[2-(3-allyl-ureido)-ethoxy]-4-(4-bromo-2-fluoro-phenylamino)-quinazolin-6-yl]-acrylamide]: the IC50 in experiment [1] (Homo sapiens, 96 h) came to 268 nM; in experiment [2] (Homo sapiens, SK-BR-3, 72 h), 166 nM; in experiment [3] (Homo sapiens, 72 h) it was 10000 nM; in experiment [4] (Homo sapiens, A-431, 72 h), 13 nM; in experiment [5], 155 nM; in experiment [6], 19 nM.

For `C=CC(=O)Nc1cc2c(Nc3ccc(Br)cc3F)ncnc2cc1OCC(CC)NC(C)=O` (stereo not drawn) [Example 86, N-[7-(2-acetylamino-butoxy)-4-(4-bromo-2-fluoro-phenylamino)-quinazolin-6-yl]-acrylamide], the 50% inhibitory concentration (IC50) in experiment [1] (Homo sapiens, 96 h) was found to be 118 nM; in experiment [2] (Homo sapiens, SK-BR-3, 72 h), 208 nM; in experiment [3] (Homo sapiens, 72 h) it was 722 nM; in experiment [4] (Homo sapiens, A-431, 72 h) it was 71 nM; in experiment [5] it was 98 nM; in experiment [6] it was 69 nM.

With `C=CC(=O)Nc1cc2c(Nc3ccc(Br)cc3F)ncnc2cc1OCC1CCN(C(N)=O)CC1` [Example 4, 4-[6-acryloylamino-4-(4-bromo-2-fluoro-phenylamino)-quinazolin-7-yloxymethyl]-piperidin-1-carboxylic acid amide], the IC50 in experiment [1] (Homo sapiens, 96 h) turned out to be 87 nM; in experiment [2] (Homo sapiens, SK-BR-3, 72 h), 147 nM; in experiment [3] (Homo sapiens, 72 h), 5680 nM; in experiment [4] (Homo sapiens, A-431, 72 h) it was 25 nM; in experiment [5], 136 nM; in experiment [6] it was 15 nM.

As for `C=CC(=O)Nc1cc2c(Nc3ccc(Br)cc3F)ncnc2cc1OCC(=O)NCCN(CC)CC` [Example 65, N-{4-(4-bromo-2-fluoro-phenylamino)-7-[(2-diethylamino-ethylcarbamoyl)-methoxy]-quinazolin-6-yl}-acrylamide], the IC50 in experiment [1] (Homo sapiens, 96 h) stood at 964 nM; in experiment [2] (Homo sapiens, SK-BR-3, 72 h) it was 694 nM; in experiment [3] (Homo sapiens, 72 h), 10000 nM; in experiment [4] (Homo sapiens, A-431, 72 h), 596 nM; in experiment [5] it was 954 nM; in experiment [6] it was 652 nM.

With “N-{2-[6-acryloylamino-4-(4-bromo-2-fluoro-phenylamino)-quinazolin-7-yloxy]-ethyl}-3-dimethylamino-butylamide [Example 75]”, the IC50 in experiment [1] (96 hours) amounted to 690 nM; in experiment [2] (72 hours), 658 nM; in experiment [3] (72 hours), 2660 nM; in experiment [4] (72 hours), 452 nM; in experiment [5], 658 nM; in experiment [6] it was 325 nM.

“N-{2-[6-acryloylamino-4-(4-bromo-3-chloro-2-fluoro-phenylamino)-quinazolin-7-yloxy]-ethyl}-4-dimethylamino-butylamide [Example 148]”: the IC50 in experiment [1] (96 hours) was 348 nM; in experiment [2] (72 hours), 40 nM; in experiment [3] (72 hours), 2320 nM; in experiment [4] (72 hours), 30 nM; in experiment [5], 206 nM; in experiment [6] it was 28 nM.

Consider `C=CC(=O)Nc1cc2c(Nc3ccc(Br)c(Cl)c3F)ncnc2cc1OCCNC(=O)N1CCOCC1` [Example 41, morpholine-4-carboxylic acid {2-[6-acryloylamino-4-(4-bromo-3-chloro-2-fluoro-phenylamino)-quinazolin-7-yloxy]-ethyl}-amide], for which the IC50 was determined as 221 nM in experiment [1] (Homo sapiens, 96 h); 53 nM in experiment [2] (Homo sapiens, SK-BR-3, 72 h); 7860 nM in experiment [3] (Homo sapiens, 72 h); 46 nM in experiment [4] (Homo sapiens, A-431, 72 h); 134 nM in experiment [5]; 35 nM in experiment [6].

Turning to `C=CC(=O)Nc1cc2c(Nc3ccc(Br)cc3F)ncnc2cc1OCCNC(=O)C=CC` [Example 50, but-2-enoic acid {2-[6-acryloylamino-4-(4-bromo-2-fluoro-phenylamino)-quinazolin-7-yloxy]-ethyl}-amide], the IC50 was 101 nM in experiment [1] (Homo sapiens, 96 h); 71 nM in experiment [2] (Homo sapiens, SK-BR-3, 72 h); 9570 nM in experiment [3] (Homo sapiens, 72 h); 15 nM in experiment [4] (Homo sapiens, A-431, 72 h); 66 nM in experiment [5]; 19 nM in experiment [6].

Regarding `C=CC(=O)Nc1cc2c(Nc3ccc(Br)c(F)c3F)ncnc2cc1OCCNC(=O)CN(C)C` [Example 124, N-{4-(4-bromo-2,3-difluoro-phenylamino)-7-[2-(2-dimethylamino-acetylamino)-ethoxy]-quinazolin-6-yl}-acrylamide], the IC50 in experiment [1] (Homo sapiens, 96 h) worked out at 268 nM; in experiment [2] (Homo sapiens, SK-BR-3, 72 h), 60 nM; in experiment [3] (Homo sapiens, 72 h), 2680 nM; in experiment [4] (Homo sapiens, A-431, 72 h), 19 nM; in experiment [5] it was 136 nM; in experiment [6], 18 nM.

As to `C=CC(=O)Nc1cc2c(Nc3ccc(Br)cc3F)ncnc2cc1OCCNC(=O)OC` [Example 63, {2-[6-acryloylamino-4-(4-bromo-2-fluoro-phenylamino)-quinazolin-7-yloxy]-ethyl}-carbamic acid methylester], the IC50 in experiment [1] (Homo sapiens, 96 h) stood at 102 nM; in experiment [2] (Homo sapiens, SK-BR-3, 72 h), 198 nM; in experiment [3] (Homo sapiens, 72 h) it was 10000 nM; in experiment [4] (Homo sapiens, A-431, 72 h) it was 140 nM; in experiment [5] it was 84 nM; in experiment [6], 158 nM.

For `C=CC(=O)Nc1cc2c(Nc3ccc(Br)cc3F)ncnc2cc1SCCNC(C)=O` [Example 43, N-[7-(2-acetylamino-ethylsulfanyl)-4-(4-bromo-2-fluoro-phenylamino)-quinazolin-6-yl]-acrylamide], the IC50 in experiment [1] (Homo sapiens, 96 h) stood at 987 nM; in experiment [2] (Homo sapiens, SK-BR-3, 72 h), 4340 nM; in experiment [3] (Homo sapiens, 72 h), 3670 nM; in experiment [4] (Homo sapiens, A-431, 72 h), 104 nM; in experiment [5] it was 785 nM; in experiment [6], 109 nM.

`C=CC(=O)Nc1cc2c(Nc3ccc(Br)c(Cl)c3F)ncnc2cc1OCCNC(=O)NCC` [Example 168, N-{4-(4-bromo-3-chloro-2-fluoro-phenylamino)-7-[2-(3-ethyl-ureido)-ethoxy]-quinazolin-6-yl}-acrylamide]: the IC50 in experiment [1] (Homo sapiens, 96 h) was determined as 117 nM; in experiment [2] (Homo sapiens, SK-BR-3, 72 h), 32 nM; in experiment [3] (Homo sapiens, 72 h), 10000 nM; in experiment [4] (Homo sapiens, A-431, 72 h), 12 nM; in experiment [5], 38 nM; in experiment [6], 8 nM.
